Laboratory results: US9199959B2, “HIV replication inhibitor” (Shionogi & Co., Ltd., priority 2011, dated 2015)

Assays:
CYP2C19 = molecular target: T1, CYP2C19 (Homo sapiens, UniProt P33261); assay: CYP inhibition assay, mephenytoin 4'-hydroxylation; type: in vitro ADME; conditions: pooled human liver microsomes, probe S-mephenytoin (4'-hydroxylation), 50 μmol/L, pooled human hepatic microsome
T1 construct: enzyme, pooled human hepatic microsome 0.2 mg protein/mL; from tissue; host or cells: pooled human liver microsomes
T1 sequence (P33261 whole entry): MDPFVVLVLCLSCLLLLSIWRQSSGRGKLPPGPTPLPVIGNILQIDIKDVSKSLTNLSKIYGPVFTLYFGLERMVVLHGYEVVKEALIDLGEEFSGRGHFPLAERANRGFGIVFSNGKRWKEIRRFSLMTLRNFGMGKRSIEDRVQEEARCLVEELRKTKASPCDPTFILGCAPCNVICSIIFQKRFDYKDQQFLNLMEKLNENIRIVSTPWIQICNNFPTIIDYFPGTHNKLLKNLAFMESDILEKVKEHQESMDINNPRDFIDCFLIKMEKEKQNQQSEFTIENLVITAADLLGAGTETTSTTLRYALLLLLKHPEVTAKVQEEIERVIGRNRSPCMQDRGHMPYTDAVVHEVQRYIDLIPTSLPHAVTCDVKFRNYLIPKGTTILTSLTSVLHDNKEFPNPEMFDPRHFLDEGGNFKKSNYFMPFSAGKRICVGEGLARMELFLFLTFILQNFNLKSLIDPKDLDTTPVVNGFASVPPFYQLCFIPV
Method: (§1) Using commercially available pooled human hepatic microsome, and employing, as markers, 7-ethoxyresorufin O-deethylation (CYP1A2), tolbutamide methyl-hydroxylation (CYP2C9), mephenytoin 4′-hydroxylation (CYP2C19), dextromethorphan O-demethylation (CYP2D6), and terfenedine hydroxylation (CYP3A4) as typical substrate metabolism reactions of human main five CYP enzyme forms (CYP1A2, 2C9, 2C19, 2D6, 3A4), an inhibitory degree of each metabolite production amount by a test compound was assessed.
(§2) The reaction conditions were as follows: substrate, 0.5 μmol/L ethoxyresorufin (CYP1A2), 100 μmol/L tolbutamide (CYP2C9), 50 μmol/L S-mephenytoin (CYP2C19), 5 μmol/L dextromethorphan (CYP2D6), 1 μmol/L terfenedine (CYP3A4); reaction time, 15 minutes; reaction temperature, 37° C.; enzyme, pooled human hepatic microsome 0.2 mg protein/mL; test drug concentration, 1, 5, 10, 20 μmol/L (four points).
(§3) Each five kinds of substrates, human hepatic microsome, and a test drug in 50 mmol/L Hepes buffer as a reaction solution was added to a 96-well plate as the composition as described above, NADPH, as a cofactor was added to initiate metabolism reactions as markers and, after the incubation at 37° C. for 15 minutes, a methanol/acetonitrile=1/1 (v/v) solution was added to stop the reaction. After the centrifugation at 3000 rpm for 15 minutes, resorufin (CYP1A2 metabolite) in the supernatant was quantified by a fluorescent multilabel counter and tolbutamide hydroxide (CYP2C9 metabolite), mephenytoin 4′ hydroxide (CYP2C19 metabolite), dextrorphan (CYP2D6 metabolite), and terfenadine alcohol (CYP3A4 metabolite) were quantified by LC/MS/MS.
(§4) A reaction system containing only DMSO which is a solvent for dissolving a drug was adopted as a control (100%), and the remaining activity (%) was calculated, then IC50 was calculated by reverse presumption with a logistic model using a concentration and an inhibition rate.

CYP3A4 = molecular target: T2, CYP3A4 (Homo sapiens, UniProt P08684); assay: CYP inhibition assay, terfenedine hydroxylation; type: in vitro ADME; conditions: pooled human liver microsomes, probe terfenedine (hydroxylation), 1 μmol/L, pooled human hepatic microsome
T2 construct: enzyme, pooled human hepatic microsome 0.2 mg protein/mL; from tissue; host or cells: pooled human liver microsomes
T2 sequence (P08684 whole entry): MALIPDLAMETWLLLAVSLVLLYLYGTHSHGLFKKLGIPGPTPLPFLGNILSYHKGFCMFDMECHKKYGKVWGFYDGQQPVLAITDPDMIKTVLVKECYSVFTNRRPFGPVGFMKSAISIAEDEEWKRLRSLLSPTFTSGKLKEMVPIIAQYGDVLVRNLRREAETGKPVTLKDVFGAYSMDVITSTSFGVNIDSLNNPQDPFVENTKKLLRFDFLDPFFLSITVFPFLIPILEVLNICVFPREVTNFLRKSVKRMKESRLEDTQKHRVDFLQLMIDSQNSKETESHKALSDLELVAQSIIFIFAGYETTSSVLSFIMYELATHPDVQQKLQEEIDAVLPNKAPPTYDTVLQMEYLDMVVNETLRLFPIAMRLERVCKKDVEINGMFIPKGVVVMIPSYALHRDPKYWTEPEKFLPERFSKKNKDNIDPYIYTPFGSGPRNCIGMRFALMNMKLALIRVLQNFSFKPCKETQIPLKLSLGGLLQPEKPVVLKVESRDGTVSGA
Method: as §1, §2, §3, §4

[1] = Solubility test, 1% DMSO addition, artificial intestinal juice pH 6.8; type: physicochemical; conditions: artificial intestinal juice with 1% DMSO, fassgf or other biorelevant, kinetic from dmso stock; pH 6.8, 1% DMSO addition, 16 hours at 25° C.
Method: The solubility of each compound was determined under 1% DMSO addition conditions. A 10 mmol/L solution of the compound was prepared with DMSO, and 6 μL of the solution was added to 594 μL of an artificial intestinal juice (water and a 118 mL solution of 0.2 mol/L NaOH reagent are added to 250 mL of 0.2 mol/L potassium dihydrogen phosphate reagent to reach 1000 mL) with a pH of 6.8. The mixture is left standing for 16 hours at 25° C., and the mixture is vacuum-filtered. The filtrate is two-fold diluted with methanol/water=1/1 (v/v), and the compound concentration in the filtrate is measured with HPLC or LC/MS/MS by the absolute calibration method.

[2] = Metabolism stability test, rat liver microsomes; type: in vitro ADME; conditions: amount at 0 minute = 100%
CYP2D6 = molecular target: T3, CYP2D6 (Homo sapiens, UniProt P10635); assay: CYP inhibition assay, dextromethorphan O-demethylation; type: in vitro ADME; conditions: pooled human liver microsomes, probe dextromethorphan (O-demethylation), 5 μmol/L, pooled human hepatic microsome
T3 construct: enzyme, pooled human hepatic microsome 0.2 mg protein/mL; from tissue; host or cells: pooled human liver microsomes
T3 sequence (P10635 whole entry): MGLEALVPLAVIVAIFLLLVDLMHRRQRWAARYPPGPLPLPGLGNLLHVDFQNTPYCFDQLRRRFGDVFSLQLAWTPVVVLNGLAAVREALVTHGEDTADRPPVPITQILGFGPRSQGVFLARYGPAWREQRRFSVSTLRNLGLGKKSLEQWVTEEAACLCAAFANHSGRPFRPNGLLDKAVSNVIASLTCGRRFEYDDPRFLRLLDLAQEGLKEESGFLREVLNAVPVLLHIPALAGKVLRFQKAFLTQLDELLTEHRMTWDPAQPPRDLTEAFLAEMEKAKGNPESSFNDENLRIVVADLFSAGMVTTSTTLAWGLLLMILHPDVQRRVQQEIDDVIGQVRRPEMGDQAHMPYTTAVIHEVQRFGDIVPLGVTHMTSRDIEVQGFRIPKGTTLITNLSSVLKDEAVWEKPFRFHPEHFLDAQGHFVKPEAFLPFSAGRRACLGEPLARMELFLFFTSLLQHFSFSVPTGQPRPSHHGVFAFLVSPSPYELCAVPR
Method: as §1, §2, §3, §4

CYP1A2 = molecular target: T4, CYP1A2 (Homo sapiens, UniProt P05177); assay: CYP inhibition assay, 7-ethoxyresorufin O-deethylation; type: in vitro ADME; conditions: pooled human liver microsomes, probe 7-ethoxyresorufin (O-deethylation), 0.5 μmol/L, pooled human hepatic microsome
T4 construct: enzyme, pooled human hepatic microsome 0.2 mg protein/mL; from tissue; host or cells: pooled human liver microsomes
T4 sequence (P05177 1-516): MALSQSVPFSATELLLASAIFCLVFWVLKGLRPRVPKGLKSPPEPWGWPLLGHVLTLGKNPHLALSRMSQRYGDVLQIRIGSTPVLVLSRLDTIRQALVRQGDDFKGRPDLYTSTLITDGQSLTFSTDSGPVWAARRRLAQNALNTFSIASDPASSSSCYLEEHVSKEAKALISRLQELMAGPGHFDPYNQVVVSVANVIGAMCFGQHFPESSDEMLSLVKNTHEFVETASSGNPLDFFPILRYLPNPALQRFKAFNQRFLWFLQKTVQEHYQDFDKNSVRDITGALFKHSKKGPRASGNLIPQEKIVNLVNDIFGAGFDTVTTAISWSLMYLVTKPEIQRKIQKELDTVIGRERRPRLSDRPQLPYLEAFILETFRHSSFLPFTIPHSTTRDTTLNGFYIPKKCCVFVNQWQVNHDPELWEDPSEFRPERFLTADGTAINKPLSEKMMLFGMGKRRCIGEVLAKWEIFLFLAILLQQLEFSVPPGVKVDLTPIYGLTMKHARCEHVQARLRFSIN
Method: as §1, §2, §3, §4

HIV (HTLV-III B strain) = assay: HIV replication inhibition assay (MTT, MT-4 cells); type: cell-based; conditions: Human immunodeficiency virus 1, MT4, 96 h, four days culture, concentration at which cell cytotoxicity by virus is inhibited 50%
Method: HIV (HTLV-III B strain) persistent infected human T cell strain Molt-4 clone 8 was cultured in 10% Fetal Bovine Serum-containing RPMI-1640 medium and the supernatant was filtrated, then the virus titer was measured and the solution was stored at −80° C. Each anti-human immunodeficiency virus active substance was diluted with the above cultured medium to the designated concentration, which was dispensed into 96 well micro plate by 50 μL. Next, a MT-4 cell suspended liquid was dispensed by 100 μL (2.5×10^4 cells), then the above HIV-containing supernatant diluted with the above cultured medium was added thereto by 50 μL (60 pfu (plaque forming unit)).
The obtained mixture was cultured at 37° C. in CO2 incubator for four days, then 3-(4,5-dimehylthiazole-2-yl)-2,5-diphenyltetrazolynium bromide (MTT) 5 mg/mL in PBS was added to each well by 30 μL, followed by 1 hr-cultivation. In this step, as formazan was precipitated by reduction of MTT in living cells, the cell supernatant was removed from all well by 150 μL, then a 150 μL of solution (10% Triton X-100 and […]) was added thereto, followed by shaking with a plate mixer, to elute formazan. The formazan was measured with a microreader at OD: 560 nm and 690 nm (wavelength) and the result was compared with the reference. EC50 means the compound concentration at which cell cytotoxicity by virus is inhibited 50%.

With `CC(=O)Nc1c(C)c(C(OC(C)(C)C)C(=O)O)c(-c2ccc(C)c(C)c2)c(C)c1-c1ccc(C)c(C)c1` (stereo not shown) [Compound I-6] the IC50 at 15 min (CYP2C19) was no less than 20 µM, the IC50 at 15 min (CYP3A4) was no less than 20 µM and the solubility at 16 h [1] was no less than 50 µM. The “remaining amount of compound in liver microsomes of rat” value [2] was 58%, the IC50 at 15 min (CYP2D6) was no less than 20 µM and the IC50 at 15 min (CYP1A2) was no less than 20 µM. For the same molecule, the EC50 (HIV (HTLV-III B strain)) was 0.0078 µM.
